From patent publication US11091471B2, “Isoxazolyl ether derivatives as GABAA α5 PAM” (Hoffmann-La Roche Inc., priority 2016, dated 2021)

Key:
[1] = biological target: T1, h-GABA-A α5β3γ2 (Homo sapiens (Human), UniProt P18507+P31644); test: Two-electrode voltage clamp electrophysiology in Xenopus oocytes expressing GABAA receptors, modulation of GABA EC20 current; format: cell-based; settings: Table 1; GABA at EC20, test compound at approx. 30 fold its Ki, Xenopus oocytes
Procedure: Xenopus laevis oocytes at maturation stages V-VI were used for the expression of cloned mRNA encoding GABAA receptor subunits. Oocytes ready for RNA micro-injection were bought from Ecocyte, Castrop-Rauxel, Germany and stored in modified Barth's medium (composition in mM: NaCl 88, KCl 1, NaHCO3 2.4, HEPES 10, MgSO4 0.82, CaNO3 0.33, CaCl2 0.33, pH=7.5) at 20° C. until the experiment.
Oocytes were plated in 96-well plates to be used in an automated instrument (Robo-ocyte, MultiChannelSystems, Reutlingen, Germany) for microinjection and electrophysiological recordings. Approximately 50 nl of an aqueous solution containing the RNA transcripts for the subunits of the desired GABAA receptor was injected into each oocyte.
Electrophysiological experiments were performed on days 3 to 5 after the micro-injection of mRNA. During the experiment the oocytes were constantly superfused by a solution containing (in mM) NaCl 90, KCl 1, HEPES 5, MgCl2 1, CaCl2 1 (pH 7.4). Oocytes were impaled by two glass microelectrodes (resistance: 0.4 MΩ) which were filled with a solution containing KCl 1M+K-acetate 1.5 M and voltage-clamped to −80 mV. The recordings were performed at room temperature using the Roboocyte two-electrode voltage clamp system (Multichannelsystem). After an initial equilibration period of 1.5 min GABA was added for 1.5 min at a concentration evoking approximately 20% of a maximal current response (EC20). After another rest interval of 2.5 min GABA was again added evoking a response of similar amplitude and shape. […] Current traces were recorded at a digitization rate of 10 Hz during and shortly before and after the GABA application.
Each compound and concentration was tested on at least 3 oocytes.
For the analysis, the digitized current traces of the first and second GABA response were superimposed and, if necessary, rescaled to equal maximal amplitudes. The ratio between the two responses during the time interval of test compound application was calculated point by point. The extremum of the resulting “ratio trace” was taken as the efficacy (“Fold increase”) of the compound expressed as “% modulation of GABA EC20” (100*(Fold increase−1)).

[2] = biological target: T1, h-GABA-A α5β3γ2; test: [3H]flumazenil competition binding assay, membranes of HEK293 cells expressing human GABAA receptors; settings: Table 1, displacement of [3H]-Flumazenil 0.5 nM, mean of two determinations
Procedure: The affinity of compounds at GABAA receptor subtypes was measured by competition for [3H]flumazenil (85 Ci/mmol; Roche) binding to HEK293 cells expressing rat (stably transfected) or human (transiently transfected) receptors of composition α1β3γ2, α2β3γ2, α3β3γ2 and α5β3γ2.
Cell pellets were suspended in Krebs-tris buffer (4.8 mM KCl, 1.2 mM CaCl2, 1.2 mM MgCl2, 120 mM NaCl, 15 mM Tris; pH 7.5; binding assay buffer), homogenized by polytron for ca. 20 sec on ice and centrifuged for 60 min at 4° C. (50000 g; Sorvall, rotor: SM24=20000 rpm). The cell pellets were resuspended in Krebs-tris buffer and homogenized by polytron for ca. 15 sec on ice. Protein was measured (Bradford method, Bio-Rad) and aliquots of 1 mL were prepared and stored at 80° C.
Assays were incubated to equilibrium for 1 hour at 4° C. and harvested onto GF/C uni-filters (Packard) by filtration using a Packard harvester and washing with ice-cold wash buffer (50 mM Tris; pH 7.5). After drying, filter-retained radioactivity was detected by liquid scintillation counting. Ki values were calculated using Excel-Fit (Microsoft) and are the means of two determinations.

| Compound | Fold increase h-GABA-A α5β3γ2 oocyte [1] | Ki [2] [nM] |
| --- | --- | --- |
| Cc1ccc(-c2noc(C)c2COc2ccc(C(=O)N[C@H]3CCCC[C@H]3O)nn2)cn1 [Example 23, N-((1S,2R)-2-hydroxycyclohexyl)-6-((5-methyl-3-(6-methylpyridin-3-yl)isoxazol-4-yl)methoxy)pyridazine-3-carboxamide] | 1.89 | 20.4 |
| O=C(N[C@H]1CCOC1)c1ccc(OCc2c(-c3ccc(Cl)nc3)noc2C2CC2)nn1 [Example 179, (S)-6-((3-(6-chloropyridin-3-yl)-5-cyclopropylisoxazol-4-yl)methoxy)-N-(tetrahydrofuran-3-yl)pyridazine-3-carboxamide] | 1.82 | 43 |
| Cc1ccc(-c2nocc2COc2ccc(C(=O)NC3CCOCC3)cn2)cn1 [Example 44, 6-((3-(6-methyl-3-pyridyl)isoxazol-4-yl)methoxy)-N-tetrahydropyran-4-yl-pyridine-3-carboxamide] | 1.54 | 76.1 |
| CO[C@@H]1CC[C@@H](NC(=O)c2ccc(OCc3c(-c4ccc(C)nc4)noc3C)nn2)C1 (racemic) [Example 166, trans-N-((1RS,3RS)-3-methoxycyclopentyl)-6-((5-methyl-3-(6-methylpyridin-3-yl)isoxazol-4-yl)methoxy)pyridazine-3-carboxamide] | 1.7 | 7.6 |
| Cc1ccc(-c2noc(C)c2COc2ccc(C(=O)N3C[C@@H]4C[C@H]3CO4)nn2)cn1 [Example 151, (1S,4S)-2-oxa-5-azabicyclo[2.2.1]heptan-5-yl(6-((5-methyl-3-(6-methylpyridin-3-yl)isoxazol-4-yl)methoxy)pyridazin-3-yl)methanone] | 1.68 | 45.8 |
